Values after ≈ are worked out from the molar mass of the structure shown. Read-outs that look alike come from different tables or passages of the source.
Columns and labels:
[1] = test system: human colon adenocarcinoma (HT29); experiment: MTT cell viability assay, HT29; format: cell-based; conditions: Homo sapiens, HT-29, 72 h; for IC80: 80% growth inhibition; for IC50: read-out: IC50
From the text: (§1) In this study, we employed the MTT (3-(4,5-dimethyl thiazol-2-yl)-2,5-diphenyltetrazolium bromide) colorimetric assay to evaluate the cytotoxic activity of selected abietanes (compounds 5, 7, 13, 17, and 19) against three tumor cell lines: human colon adenocarcinoma (HT29), human hepatocarcinoma (HepG2), and murine melanoma (B16–F10). The MTT assay relied on the conversion of MTT to formazan by viable cells, with the formazan concentration proportional to the number of viable cells. The concentrations required for 50 and 80% growth inhibition (IC50 and IC80) were determined for each compound.
(§2) The human colorectal adenocarcinoma cell line HT29 (ECACC no. 9172201; ATCC no. HTB-38), the human hepatocarcinoma cell line HepG2 (ECACC no. 85011430), the mouse melanoma cells B16–F10 (ATCC no. CRL-6475), and the murine monocyte/macrophage like RAW 264.7 cell line (ATCC no, TIB-71) were obtained from the cell bank of the University of Granada, Spain. The tumor cell lines were cultured in DMEM (Dulbecco’s modified Eagle’s medium) supplemented with 2 mM glutamine, 10% heat-inactivated FCS (fetal calf serum), and 50 μg/mL of gentamicin (for all cancer cell lines). The RAW 264.7 cell line was cultured in RPMI1640 medium, supplemented with 2 mM glutamine, 10% heat-inactivated FCS, and 50 μg/mL of gentamicin. All cell lines were incubated at 37 °C, in an atmosphere of 5% CO2 and 95% humidity. The culture media were changed every 48 h, and the confluent cultures were separated with a trypsin solution (0.25% EDTA). In all experiments, monolayer cells were grown to 80–90% confluence in sterile cell culture flasks.
(§3) The effects of the compounds on the cell viability were established using the MTT method (Sigma, St. Louis, MO, USA). The cytotoxicity of the compounds was assessed by measuring the absorbance of MTT dye staining of metabolically competent cells. The cells were cultivated in 96-well plates at 6.0 × 10^3 cells/mL for the HT29 and RAW 264.7 cell lines, at 5.0 × 10^3 cells/mL for B16–F10 cells, and 15.0 × 10^3 cells/mL for the HepG2 cell line, with a final volume of 200 μL per well being incubated with the different products (0–100 μg/mL). After 72 h, 100 μL of MTT solution (0.5 mg/mL) in 50% of PBS and 50% of the medium was added to each well. Following incubation for 1.5 h, formazan was resuspended in 100 μL of DMSO, and each concentration was tested in triplicate. The cell viability relative to the untreated control cells was determined by measuring the absorbance at 570 nm using an ELISA plate reader (Tecan Sunrise MR20–301, TECAN, Grödig, Austria).

[2] = test system: murine melanoma (B16–F10); experiment: MTT cell viability assay, B16-F10; format: cell-based; conditions: Mus musculus, 72 h; for IC80: 80% growth inhibition
From the text: as §1, §2, §3

[3] = test system: NO release in LPS-stimulated RAW 264.7 macrophage cells; experiment: Inhibition of nitric oxide production (Griess nitrite assay) in LPS-activated RAW 264.7 macrophages; format: cell-based, murine; conditions: LPS-stimulated RAW 264.7, 48 h; for NO inhibition: ¾ IC50 concentration; for IC50: Mus musculus, RAW264.7
Protocol: To evaluate the anti-inflammatory activity of the rearranged abietanes (5, 7, 17, and 19) along with their precursor 13, we conducted experiments on RAW 264.7 macrophage cells, a well-known model for screening anti-inflammatory compounds. The macrophages were stimulated with LPS to induce the maximum release of nitric oxide (NO) during the inflammatory response. Subsequently, the different compounds were incubated with the cells at sub-cytotoxic concentrations for 48 h (Figure 9). Next, we determined the concentration of nitrites in the culture medium, which was proportional to the amount of NO release.
Nitrite production was analyzed using the Griess reaction method. The concentration of nitrite was used as an indication of nitric oxide (NO) production. RAW 264.7 cells were seeded at 6 × 10^4 cells/well in 24-well cell culture plates, supplemented with 10 μg/mL of lipopolysaccharide (LPS). […] The Griess reaction was conducted by mixing 150 μL of supernatant test samples or sodium nitrite standard (0–120 μM) with 25 μL of Griess reagent A (0.1% n-(1-naphthyl) ethylenediamine dihydrochloride) and 25 μL of Griess reagent B (1% sulfanilamide in 5% of phosphoric acid) in a 96-well plate. The mixture was incubated at room temperature for 15 min, after which the absorbance was measured at 540 nm using an ELISA plate reader (Tecan Sunrise MR20–301, TECAN, Grödig, Austria). To determine the concentration of nitrite in each sample supernatant, the absorbance was referenced to the nitrite standard curve. To determine the percentage of NO production, the increase between the negative control (untreated cells) and the positive control (cells only with 10 μg/mL of LPS) was assigned 100%.

[4] = RAW 264.7 cell viability (MTT); format: cell-based, murine; conditions: mouse
Protocol: To evaluate the cytotoxic effects of the synthesized abietanes (5, 7, 13, 17, and 19) on RAW 264.7 monocyte/macrophage murine cells and to establish sub-cytotoxic concentrations for anti-inflammatory testing, we conducted cell viability assays using the MTT method. Each compound was tested at increasing concentration levels (0–100 μg/mL), and the IC50 values were determined by interpolation in the sigmoidal cytotoxicity curves (Figure 8). […] Additionally, sub-cytotoxic concentrations corresponding to ¾ IC50, ½ IC50, and ¼ IC50 were determined and selected for subsequent anti-inflammatory assays, ensuring that the observed effects were specifically attributed to the anti-inflammatory properties of the compounds rather than cytotoxicity. The human colorectal adenocarcinoma cell line HT29 (ECACC no. 9172201; ATCC no. HTB-38), the human hepatocarcinoma cell line HepG2 (ECACC no. 85011430), the mouse melanoma cells B16–F10 (ATCC no. CRL-6475), and the murine monocyte/macrophage like RAW 264.7 cell line (ATCC no, TIB-71) were obtained from the cell bank of the University of Granada, Spain. The tumor cell lines were cultured in DMEM (Dulbecco’s modified Eagle’s medium) supplemented with 2 mM glutamine, 10% heat-inactivated FCS (fetal calf serum), and 50 μg/mL of gentamicin (for all cancer cell lines). The RAW 264.7 cell line was cultured in RPMI1640 medium, supplemented with 2 mM glutamine, 10% heat-inactivated FCS, and 50 μg/mL of gentamicin. All cell lines were incubated at 37 °C, in an atmosphere of 5% CO2 and 95% humidity. The culture media were changed every 48 h, and the confluent cultures were separated with a trypsin solution (0.25% EDTA). In all experiments, monolayer cells were grown to 80–90% confluence in sterile cell culture flasks. The effects of the compounds on the cell viability were established using the MTT method (Sigma, St. Louis, MO, USA). The cytotoxicity of the compounds was assessed by measuring the absorbance of MTT dye staining of metabolically competent cells. The cells were cultivated in 96-well plates at 6.0 × 10^3 cells/mL for the HT29 and RAW 264.7 cell lines, at 5.0 × 10^3 cells/mL for B16–F10 cells, and 15.0 × 10^3 cells/mL for the HepG2 cell line, with a final volume of 200 μL per well being incubated with the different products (0–100 μg/mL). After 72 h, 100 μL of MTT solution (0.5 mg/mL) in 50% of PBS and 50% of the medium was added to each well. Following incubation for 1.5 h, formazan was resuspended in 100 μL of DMSO, and each concentration was tested in triplicate. The cell viability relative to the untreated control cells was determined by measuring the absorbance at 570 nm using an ELISA plate reader (Tecan Sunrise MR20–301, TECAN, Grödig, Austria).

[5] = test system: human hepatocarcinoma (HepG2); experiment: MTT cell viability assay, HepG2; format: cell-based; conditions: Homo sapiens; for IC80: 72 h, 80% growth inhibition; for IC50: HepG2, 72 h, read-out: IC50
From the text: as §1, §2, §3

[6] = test system: P388 leukemia cells; parameters: method as in doi:10.1076/phbi.37.2.148.6082; conditions: cited from earlier work
[7] = test system: human carcinoma KB cells; parameters: method as in doi:10.1076/phbi.37.1.17.6321; conditions: cited from earlier work
[8] = test system: human leukemia lymphoblastic NALM-6; parameters: method as in PMID 16989306; conditions: cited from earlier work
[9] = test system: promyelocytic HL-60 cells; parameters: method as in PMID 16989306; conditions: cited from earlier work
[10] = parameters: method as in PMID 29772301; conditions: orthoquinones versus para-quinones; cell lines not given; read-out: cytotoxic activity; cited from earlier work
[11] = RAW 264.7 monocyte/macrophage cells, RAW 264.7, MTT, 0–100 μg/mL, read-out: IC50 (cytotoxicity)

Molecule	IC80 [1]	IC50 [1]	IC50 [2]	IC80 [2]	NO inhibition [3]	IC50 [3]	IC50 at 72 h [4, 11]	IC80 [5]	IC50 [5]	cytotoxicity [6]	IC50 at 72 h [4]	cytotoxic effect [7]	IC50 [8]	IC50 [9]	IC50 [10]
CC(C)=CCCc1c(C)ccc2c1C(=O)C(=O)C(C(C)C)=C2 [Compound 7, saprorthoquinone]	10.6 ± 0.28 µg/mL (≈ 35.8 µM)	7.82 ± 0.17 µg/mL (≈ 26.4 µM)	6.89 ± 0.37 µg/mL (≈ 23.2 µM)	8.02 ± 0.52 µg/mL (≈ 27.1 µM)	100%	1.3 ± 0.08 µg/mL (≈ 4.39 µM)	2.81 ± 0.45 µg/mL (≈ 9.48 µM)	29.12 ± 0.21 µg/mL (≈ 98.2 µM)	21.2 ± 2.26 µg/mL (≈ 71.4 µM)	strong cytotoxicity	–	–	–	–	–
CC(C)c1cc2c(c(O)c1O)C1=CC(=O)CC(C)(C)[C@@]1(C)C=C2 [Compound 17, pygmaeocin C]	24.4 ± 2.65 µg/mL (≈ 78 µM)	15.3 ± 0.71 µg/mL (≈ 48.9 µM)	10.1 ± 1.81 µg/mL (≈ 32.4 µM)	26.6 ± 4.82 µg/mL (≈ 85.2 µM)	91%	1.73 ± 0.04 µg/mL (≈ 5.54 µM)	–	73.5 ± 2.06 µg/mL (≈ 235 µM)	38.8 ± 1.55 µg/mL (≈ 124 µM)	–	6.27 ± 0.94 µg/mL (≈ 20.1 µM)	–	–	–	–
CC(C)C1=CC2=C(C(=O)C1=O)C1=CCCC(C)(C)[C@@]1(C)C=C2 [Compound 19, viridoquinone]	74.7 ± 1.53 µg/mL (≈ 252 µM)	60.52 ± 0.28 µg/mL (≈ 204 µM)	6.42 ± 0.35 µg/mL (≈ 21.7 µM)	9.14 ± 0.38 µg/mL (≈ 30.8 µM)	100%	7.21 ± 0.9 µg/mL (≈ 24.3 µM)	9.29 ± 0.35 µg/mL (≈ 31.3 µM)	101 ± 3.47 µg/mL (≈ 339 µM)	76.3 ± 2.14 µg/mL (≈ 257 µM)	–	–	–	–	–	–
C=C(C)CCCc1c(C)ccc2c1C(=O)C(=O)C(C(C)C)=C2 [aethiopinone]	–	–	–	–	–	–	–	–	–	–	–	potent cytotoxic effect	0.6 µg/mL (≈ 2.02 µM)	4.8 µg/mL (≈ 16.2 µM)	–
aegyptinone A	–	–	–	–	–	–	–	–	–	–	–	–	–	–	2.11 to 8.19 µM
tebesinone B	–	–	–	–	–	–	–	–	–	–	–	–	–	–	5.47 to 10.3 µM

Source: PMC10487843, “Evaluation of Anticancer and Anti-Inflammatory Activities of Some Synthetic Rearranged Abietanes” (International Journal of Molecular Sciences, 2023)
